Test results as given in ChEMBL document CHEMBL1143485, “The synthesis and biological evaluation of dopamine transporter inhibiting activity of substituted diphenylmethoxypiperidines” (Bioorg Med Chem Lett, 2005).

How the values were obtained:
[1] = test system: Mus musculus; experiment: Locomotor activity in mice after intraperitoneal administration at 17.8 […]; assay type: functional
[2] = molecular target: Sodium-dependent dopamine transporter (Rattus norvegicus, UniProt P23977); experiment: Displacement of [125I]RTI-55 dopamine transporter binding in rat striatal membrane; assay type: cell membranes, Striatum
Sodium-dependent dopamine transporter, sequence (P23977 whole entry): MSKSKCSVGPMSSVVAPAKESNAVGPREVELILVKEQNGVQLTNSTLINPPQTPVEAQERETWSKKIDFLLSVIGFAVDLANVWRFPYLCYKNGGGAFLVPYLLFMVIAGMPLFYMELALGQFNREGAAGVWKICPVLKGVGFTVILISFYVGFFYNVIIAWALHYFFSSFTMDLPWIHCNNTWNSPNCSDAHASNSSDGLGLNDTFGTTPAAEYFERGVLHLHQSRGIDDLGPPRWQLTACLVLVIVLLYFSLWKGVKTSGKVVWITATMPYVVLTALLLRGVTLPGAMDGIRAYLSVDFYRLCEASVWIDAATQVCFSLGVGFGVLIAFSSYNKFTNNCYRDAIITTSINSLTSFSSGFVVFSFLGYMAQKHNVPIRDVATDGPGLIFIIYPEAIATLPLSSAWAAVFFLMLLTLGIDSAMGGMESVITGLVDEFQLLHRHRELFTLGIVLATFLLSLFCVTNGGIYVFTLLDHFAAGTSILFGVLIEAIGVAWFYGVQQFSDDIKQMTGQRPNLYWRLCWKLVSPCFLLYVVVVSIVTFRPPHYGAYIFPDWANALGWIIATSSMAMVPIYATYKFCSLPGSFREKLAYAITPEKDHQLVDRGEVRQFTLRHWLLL

SMILES	Activity [1] [m/3h]	IC50 [2] [nM]
CN1CCC(OC(c2ccccc2)c2ccccc2)CC1	12.2	
CN1CCC(OC(c2ccc(Cl)cc2)c2ccc(Cl)cc2)CC1	5.18	44
CN1CCC(OC(c2ccc(F)cc2)c2ccc(F)cc2)CC1	34.8	
CN1CCC(OC(c2ccccc2)c2ccc(Cl)cc2)CC1 (centres undefined)	5.89	155
Cc1cccc(C(OC2CCN(C)CC2)c2ccccc2)c1 (centres undefined)		293
CCCCN1CCC(OC(c2ccc(Cl)cc2)c2ccc(Cl)cc2)CC1	3.87	12.5
CC(OC1CCN(C)CC1)c1ccc(F)cc1 (centres undefined)		264
CN1CCC(OC(c2ccccc2)c2ccc(F)cc2)CC1 (centres undefined)		277
Fc1ccc(CN2CCC(OC(c3ccc(Cl)cc3)c3ccc(Cl)cc3)CC2)cc1		50.6
COC(=O)[C@H]1[C@@H](OC(=O)c2ccccc2)C[C@@H]2CC[C@H]1N2C [COCAINE]	16.7	
Fc1ccc(C(OCCN2CCN(CCCc3ccccc3)CC2)c2ccc(F)cc2)cc1 [VANOXERINE]	26.3	
